This data set has as its system Philasterides dicentrarchi. The data set can be described thus: microbe, parasite or virus in culture. The conditions noted are these: for mortality at 100 µM / inhibition at 100 µM / GI50: Philasterides dicentrarchi; for mortality at 100 µM / Ciliate Mortality 3 h (%): 3 h; for Growth Inhibition 24 h (%) / Ciliate Mortality 3 h (%): mean ± SD of three replicates. How it is done:
P. dicentrarchi (isolate I1), obtained from an outbreak of scuticociliatosis in cultured turbot in Galicia, was routinely cultured at 18 °C in complete sterile L15 medium (Leibovitz, PAA Laboratories GmbH, 1% salinity, pH 7.2) containing 90 mg/L each of adenosine, cytidine, and uridine, 150 mg/L of guanosine, 5 g/L of glucose, 400 mg/L of L-α-phosphatidylcholine, 200 mg/L of Tween 80, 10% of heat-inactivated foetal bovine serum (FBS), and 10 mL/L of 100X antibiotic–antimycotic solution (100 units/mL of penicillin G, 0.1 mg/mL of streptomycin sulphate and 0.25 mg/mL of amphotericin B), as previously described. Alternatively, ciliates were cultured in seawater with autoclaved marine bacteria (10^6 cells/mL) supplied as food at 21 °C. The ciliates were cultured under normoxic conditions in tissue culture flasks fitted with vented caps that enabled aeration of the culture medium.
We tested the toxicity to P. dicentrarchi of 26 compounds of natural origin (Table 1). The compounds were prepared in 10 mM stock solutions in dimethyl sulfoxide (DMSO) and maintained at −20 °C until use. In addition, the Pseudomonas H6 lipopeptide surfactant (PS) was prepared, lyophilised and stored at −20 °C [37]. A stock solution of PS was prepared in distilled water (1000 ppm) and diluted in culture medium or seawater at the final concentrations used in each assay and sterile filtered (through 0.2 µm filters) before being added to the parasites or EPC cells.
The anticiliate activity was assayed as previously described, with minor modifications. Ciliates were concentrated by centrifugation at 650× g for 5 min and resuspended in a medium at the concentration required for the assays. All experiments were carried out in triplicate. Wells containing ciliates in a culture medium or seawater without the test compounds were assayed as negative controls. To rule out any possible effects of the solvent (DMSO), triplicate wells with a culture medium or seawater containing the highest concentration of DMSO used (up to 1%) were also included. […] In these assays, the compounds were diluted in 1 mL of culture medium or seawater and added to the wells of 24-well sterile culture plates containing 2.5 × 10^4 ciliates per well, at final concentrations of […], 6.25, 12.5, 25, 50, and 100 µM in culture medium. The effects of the compounds on the motility and morphology of the ciliates were monitored periodically (at 30 min, 1, 2, 3, 24, and 48 h) under an inverted optical microscope. Ciliates were considered dead when they lysed and were not motile. The results obtained are expressed as percentage mortality for each experimental group. To estimate the total number of ciliates per well, the ciliates were inactivated by adding 0.25% glutaraldehyde and counted in a haemocytometer under an optical microscope. The lowest dose of the selected compounds resulting in 100% ciliate mortality (LC100) was assessed at 1, 2, and 3 h after incubation of parasites with sample dilutions (from 0 to 100 μg/mL, in 10 μg intervals). The concentration that inhibited 50% of ciliate growth (GI50), in comparison with the control group, was calculated with Excel software (Microsoft Office; Microsoft, Redmond, WA, USA) by plotting the dose-response data (log dose-per cent of growth inhibition) and applying linear regression (y = mx + b) for data fitting. The values were then calculated from the equation log GI50 = (50 − b)/m, where m is the slope y1 − y2/x1 − x2, and b is the intercept of the line.

The mark [1] stands for this setting: read-out: Ciliate Mortality 3 h (%), 100 μM, 3 h, culture medium, mean ± SD of three replicates.
[2] abbreviates: 24 h, read-out: Growth Inhibition 24 h (%), 100 μM, 24 h, culture medium, mean ± SD of three replicates.
The mark [3] stands for this setting: 24 h, read-out: GI50 24 h (compound concentration that inhibited 50% of parasite growth).
[4] abbreviates: 48 h, read-out: GI50 48 h (compound concentration that inhibited 50% of parasite growth).

Where two headings read alike, the source gives them in different places.

What is called mortality is the percentage killed. The term inhibition denotes the change of the read-out against control, counted positive when it falls. As to `O=C(O)c1ccccc1` [Benzoic acid], the mortality at 100 µM (read-out: Ciliate Mortality 3 h (%)) came to 1.64 ± 0.56%. Further, the inhibition at 100 µM (24 h, read-out: Growth Inhibition 24 h (%)) was determined as 17.4 ± 1.2%.
On to `O=c1ccc2ccc(O)cc2o1` [Umbelliferone], for which the mortality at 100 µM under setting [1] amounted to 2.9 ± 1.89%. Under setting [2], the inhibition at 100 µM amounted to 44.9 ± 7.23%.
Take `O=C(/C=C/c1ccc(O)c(O)c1)O[C@H](Cc1ccc(O)c(O)c1)C(=O)O` [Rosmarinic acid]: under setting [1], the mortality at 100 µM stood at 27.1 ± 7.27%. Moreover, the inhibition at 100 µM under setting [2] turned out to be 35 ± 5.51%.
In the same order, the values of `C=CCSCC=C` [Diallyl sulfide] are 22.3 ± 5.1% and 38.8 ± 7.32%.
For `CC1(C)CCC[C@]2(C)[C@H]3CC(=O)O[C@]3(C)CC[C@@H]12` [Sclareolide], the “Growth Inhibition 24 h (%)” value (100 μM, 24 h, culture medium) worked out at 71.67 ± 6.92%.
Consider `O=C(/C=C/C=C/c1ccc2c(c1)OCO2)N1CCCCC1` [Piperine], for which, under “100 μM, 24 h, culture medium”, the “Growth Inhibition 24 h (%)” value is 89.04 ± 3.37%. For the same molecule, under setting [1], the mortality at 100 µM came out at 42.6 ± 9.1%. The GI50 under setting [3] stood at 60.7 ± 6.31 µM and the GI50 under setting [4] was found to be 44 ± 1.83 µM. Further, under setting [2], the inhibition at 100 µM is over 80%.
For the molecule `O=c1ccc2ccccc2o1` [Coumarin], under setting [1], the mortality at 100 µM was found to be 8 ± 5.9%. For the same molecule, the inhibition at 100 µM under setting [2] stood at 23.5 ± 4.12%.
Regarding `C[C@@H]1CC[C@H]2C(C)(C)[C@H]3C[C@@]12CC[C@@]3(C)O` [Cedrol], under setting [1], the mortality at 100 µM worked out at 64.2 ± 3.7%. Under setting [2], the inhibition at 100 µM came to 66.67 ± 0.33%.
On to Garlicin [Garlicin 80%], for which, where the note is “100 μM, 24 h, culture medium”, the “Growth Inhibition 24 h (%)” value was 42.47 ± 5.62%.
Turning to `CC12CCC(CC1=O)C2(C)C` (centres unmarked) [Camphor (1r)], under “100 μM, culture medium”, the “Ciliate Mortality 3 h (%)” value came to 0%. Further, the “Growth Inhibition 24 h (%)” value (100 μM, 24 h, culture medium) worked out at 77.42 ± 2.7%.
Turning to `O=C(O)CCCC[C@@H]1SC[C@@H]2NC(=O)N[C@@H]21` [Biotin], the mortality at 100 µM under setting [1] is 0%. Under setting [2], the inhibition at 100 µM worked out at 37 ± 0.72%.
Consider `CC12CCC(CC1)C(C)(C)O2` [Eucalyptol], for which the mortality at 100 µM under setting [1] was 17 ± 8.42%. For the same molecule, under setting [2], the inhibition at 100 µM came out at 35.6 ± 4.21%.
In the case of `C[C@H]1C(=O)O[C@@H]2CCN3CC=C(COC(=O)[C@](C)(O)[C@]1(C)O)[C@H]23` [Monocrolatine], the “Ciliate Mortality 3 h (%)” value (100 μM, culture medium) is given as 6.61 ± 1.06%. Moreover, the “Growth Inhibition 24 h (%)” value (100 μM, 24 h, culture medium) is listed as 9.8 ± 2.11%.
On to `CC(O)C(=O)[O-].[Na+]` (centres unmarked) [Sodium lactate], for which the “Ciliate Mortality 3 h (%)” value (100 μM, culture medium) stood at 13.76 ± 4.1%. The “Growth Inhibition 24 h (%)” value (100 μM, 24 h, culture medium) was determined as 28.33 ± 3.93%.
Take `OCCc1ccccc1` [Phenylethyl alcohol]: the mortality at 100 µM under setting [1] came to 2.3 ± 1.4%. The inhibition at 100 µM under setting [2] stood at 30.1 ± 4.63%.
Consider `CCCCCCc1ccc(O)cc1O` [4-hexylresorcinol], for which the “Ciliate Mortality 3 h (%)” value (100 μM, culture medium) worked out at 95.3 ± 4.05%. The “parasites killed after 24 h” value (100 μM, 24 h, culture medium) is on record as “killed all the parasites”. The mortality at 100 µM under setting [1] is over 90%. The GI50 is, setting by setting: under setting [3], 63.3 ± 3.61 µM; under setting [4], 40.8 ± 0.11 µM. Also, under setting [2], the inhibition at 100 µM amounted to 100%.
Take `CC1=NCCc2c1[nH]c1cc(O)ccc21.Cl.O.O` [Harmalol hydrochloride dihydrate]: the “Ciliate Mortality 3 h (%)” value (100 μM, culture medium) amounted to 4.8 ± 1.12%. The “Growth Inhibition 24 h (%)” value (100 μM, 24 h, culture medium) is reported as 40.08 ± 4.9%.
Take `O=c1cc(-c2ccccc2)oc2cc(O)ccc12` [7-hydroxyflavone]: the mortality at 100 µM under setting [1] stood at 10 ± 1.52%. The inhibition at 100 µM under setting [2] is 67.4 ± 2.4%.
`CCCCOC(=O)c1ccc(O)cc1` [Butyl 4-hydroxybenzoate]: the “Growth Inhibition 24 h (%)” value (100 μM, 24 h, culture medium) is recorded as 80.65 ± 2.42%. For the same molecule, the mortality at 100 µM under setting [1] was found to be 52.9 ± 2.39%. Further, the GI50 reads like this: under setting [3], 43.9 ± 6.6 µM; under setting [4], 29.2 ± 0.35 µM. Also, the inhibition at 100 µM under setting [2] was over 80%.
As to `CC(=O)c1c(O)c(C)c(O)c2c1OC1=CC(=O)C(C(C)=O)C(=O)C12C` (centres unmarked) [Usnic acid], under setting [1], the mortality at 100 µM turned out to be 38.3 ± 5.52%. Under setting [2], the inhibition at 100 µM turned out to be 68.3 ± 3.34%.
Turning to `O=c1ccc2cc(O)c(O)cc2o1` [Esculetin], the mortality at 100 µM under setting [1] stood at 8.2 ± 5.32%. Moreover, the inhibition at 100 µM under setting [2] is 15.3 ± 6.32%.
